Where a name gives a salt, the structure may show the parent alone.
Key:
[1] = target: T1, proMMP9(20-445;ΔFnII) (SEQ ID NO:6) (Homo sapiens, UniProt P14780, DEL216-390); test: ThermoFluor binding assay with proMMP9(20-445;ΔFnII)
T1 construct: start methionine (N); made in house; host or cells: E. coli BL21(DE3) RIL
T1 sequence (P14780 with tags, fused parts or gaps DEL216-390): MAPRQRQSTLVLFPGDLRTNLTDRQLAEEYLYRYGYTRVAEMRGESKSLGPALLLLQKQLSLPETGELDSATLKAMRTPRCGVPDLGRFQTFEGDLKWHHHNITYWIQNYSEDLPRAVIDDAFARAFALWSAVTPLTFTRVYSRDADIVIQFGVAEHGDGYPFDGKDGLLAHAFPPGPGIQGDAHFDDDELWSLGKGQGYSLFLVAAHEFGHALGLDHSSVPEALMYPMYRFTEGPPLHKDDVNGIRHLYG
Description: (§1) The ThermoFluor® (TF) assay is a 384-well plate-based binding assay that measures thermal stability of proteins (Biomol Screen 2001, 6, 429-40; Biochemistry 2005, 44, 5258-66). The experiments were carried out using instruments available from Johnson & Johnson Pharmaceutical Research & Development, LLC. TF dye used in all experiments was […] (1,8-ANS) (Invitrogen: A-47).
(§2) Compounds were arranged in a pre-dispensed plate (Greiner Bio-one: 781280), wherein compounds were serially diluted in 100% DMSO across 11 columns within a series. Columns 12 and 24 were used as DMSO reference and contained no compound. For multiple compound concentration-response experiments, the compound aliquots ([…]) were robotically predispensed directly into black 384-well polypropylene PCR microplates (Abgene: TF-0384/k) using a Cartesian Hummingbird liquid handler (DigiLab, Holliston, Mass.). Following compound dispense, protein and dye solutions were added to achieve the final assay volume of 3 μL. The assay solutions were overlayed with 1 μL of silicone oil (Fluka, type DC 200: 85411) to prevent evaporation.
(§3) Assay plates were robotically loaded onto a thermostatically controlled PCR-type thermal block and then heated from 40 to 90° C. at a ramp-rate of 1° C./min for all experiments. Fluorescence was measured by continuous illumination with UV light (Hamamatsu LC6) supplied via fiber optics and filtered through a band-pass filter (380-400 nm; >60D cutoff). Fluorescence emission of the entire 384-well plate was detected by measuring light intensity using a CCD camera (Sensys, Roper Scientific) filtered to detect 500±25 nm, resulting in simultaneous and independent readings of all 384 wells. A single image with 20-sec exposure time was collected at each temperature, and the sum of the pixel intensity in a given area of the assay plate was recorded vs temperature and fit to standard equations to yield the Tm (J Biomol Screen 2001, 6, 429-40).
(§4) Thermodynamic parameters necessary for fitting compound binding for each proMMP were estimated by differential scanning calorimetry (DSC) and from ThermoFluor® data. The heat capacity of unfolding for each protein was estimated from the molecular weight and from ThermoFluor® dosing data.
The protein sample preparations included a desalting buffer exchange step via a PD-10 gravity column (GE Healthcare). The desalting buffer exchange was performed prior to diluting the protein to the final assay concentration of 2.8 μM proMMP9(20-445;ΔFnII) (SEQ ID NO:6). The concentration of proMMP9(20-445;ΔFnII) (SEQ ID NO:6) was determined spectrophotometrically based on a calculated extinction coefficient of ε280=39880 M^−1cm^−1, a calculated molecular weight of 28.2 kDa, and calculated pI of 5.5. ThermoFluor® reference conditions were define as follows: 80 μg/mL (2.8 μM) proMMP9(20-445;ΔFnII) (SEQ ID NO:6), 50 μM 1,8-ANS, pH 7.0 Buffer (50 mM HEPES pH 7.0, 100 mM NaCl, 0.001% Tween-20, 2.5 mM MgCl2, 300 μM CaCl2). The thermodynamic parameters for proMMP9(20-445;ΔFnII) (SEQ ID NO:6) are as follows: Tm (° C.)=72 (+/−0.1), ΔUH(Tm) (cal mol^−1)=160000(+/−5000), ΔUS(Tm) (cal mol^−1 K^−1)=434, ΔUCp ([…])=2400.

[2] = target: T2, proMMP9(67-444;ΔFnII) (SEQ ID NO:5) (Homo sapiens, UniProt P14780, DEL216-390); test: ThermoFluor binding assay with proMMP9(67-444;ΔFnII)
T2 construct: start methionine (N); made in house; host or cells: E. coli BL21(DE3) RIL
T2 sequence (P14780 with tags, fused parts or gaps DEL216-390): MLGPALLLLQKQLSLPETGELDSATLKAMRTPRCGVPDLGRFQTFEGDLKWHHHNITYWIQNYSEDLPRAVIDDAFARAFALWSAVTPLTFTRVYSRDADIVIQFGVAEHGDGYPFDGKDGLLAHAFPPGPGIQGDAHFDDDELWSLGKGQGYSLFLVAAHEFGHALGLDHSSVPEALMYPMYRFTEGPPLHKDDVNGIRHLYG
Description: as §1, §2, §3, §4
The protein sample preparations had to include a desalting buffer exchange step via a PD-10 gravity column (GE Healthcare). The desalting buffer exchange was performed prior to diluting the protein to the final assay concentration of 3.5 μM proMMP9(67-444;ΔFnII) (SEQ ID NO:5). The concentration of proMMP9(67-444;ΔFnII) (SEQ ID NO:5) was determined spectrophotometrically based on a calculated extinction coefficient of ε280=33900 M^−1cm^−1, a calculated molecular weight of 22.6 kDa, and calculated pI of 5.20. ThermoFluor® reference conditions were defined as follows: 80 μg/mL (3.5 μM) proMMP9(67-444;ΔFnII) (SEQ ID NO:5), 50 μM 1,8-ANS, pH 7.0 Buffer (50 mM HEPES pH 7.0, 100 mM NaCl, 0.001% Tween-20, 2.5 mM MgCl2, 300 μM CaCl2). The thermodynamic parameters for proMMP9(67-444;ΔFnII) (SEQ ID NO:5) are as follows: Tm (° C.)=63 (+/−0.1), ΔUH(Tm) (cal mol^−1)=105000(+/−5000), ΔUS(Tm) (cal mol^−1 K^−1)=[…], ΔUCp (cal mol^−1 K^−1)=2000.

[3] = target: T3, full-length proMMP9(1-707) (SEQ ID NO:1) (Homo sapiens, UniProt P14780, R574P); test: proMMP9/MMP3 P126 Activation Assay; format: biochemical; details: 20 nM proMMP9, 20 nM MMP3, 80 min 37° C.
T3 construct: made in house; host or cells: HEK293 (proMMP9, secreted); E. coli (MMP3)
T3 sequence (P14780 20-707 R574P): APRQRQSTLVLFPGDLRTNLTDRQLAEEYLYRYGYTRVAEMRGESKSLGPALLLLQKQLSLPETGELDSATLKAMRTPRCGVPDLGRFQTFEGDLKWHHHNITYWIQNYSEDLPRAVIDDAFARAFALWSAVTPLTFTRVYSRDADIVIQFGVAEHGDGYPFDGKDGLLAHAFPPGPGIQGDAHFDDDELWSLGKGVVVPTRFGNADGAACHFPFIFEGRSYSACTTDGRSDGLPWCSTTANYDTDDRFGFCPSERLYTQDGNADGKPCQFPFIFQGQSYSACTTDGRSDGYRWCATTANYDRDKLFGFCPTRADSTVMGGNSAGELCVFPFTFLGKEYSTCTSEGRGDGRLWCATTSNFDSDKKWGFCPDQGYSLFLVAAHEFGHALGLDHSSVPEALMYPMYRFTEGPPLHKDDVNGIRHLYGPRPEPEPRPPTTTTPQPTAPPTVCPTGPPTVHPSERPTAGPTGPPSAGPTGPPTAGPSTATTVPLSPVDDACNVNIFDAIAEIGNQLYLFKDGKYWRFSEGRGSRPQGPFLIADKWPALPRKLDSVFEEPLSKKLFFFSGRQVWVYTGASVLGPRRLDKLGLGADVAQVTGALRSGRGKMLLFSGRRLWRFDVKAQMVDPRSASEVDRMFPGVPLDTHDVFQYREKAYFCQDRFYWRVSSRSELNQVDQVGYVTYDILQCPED
Description: The reaction volume was 50 μL. […] Reactivity of residual MMP3 towards P-126 substrate was minimal under these conditions.

[4] = target: T4, proMMP13(1-268) (SEQ ID NO:7) (Homo sapiens, UniProt P45452); test: ThermoFluor binding assay with proMMP13(1-268); set-up: 6x-histidine (C); made in house
Description: as §1, §2, §3, §4
The proMMP13(1-268) (SEQ ID NO:7) protein sample preparations included a desalting buffer exchange step via a PD-10 gravity column (GE Healthcare). The desalting buffer exchange was performed prior to diluting the protein to the final assay concentration of 3.5 μM. The concentration of proMMP13(1-268) (SEQ ID NO:7) was estimated spectrophotometrically based on a calculated extinction coefficient of ε280=37000 M^−1cm^−1, a calculated molecular weight of 30.8 kDa, and calculated pI of 5.33. ThermoFluor® reference conditions were defined as follows: 100 μg/mL proMMP13(1-268) (SEQ ID NO:7), 25 μM 1,8-ANS, pH 7.0 Buffer (50 mM HEPES pH 7.0, 100 mM NaCl, 0.001% Tween-20, 2.5 mM MgCl2, 300 μM CaCl2). The thermodynamic parameters for proMMP13(1-268) (SEQ ID NO:7) are as follows: Tm (° C.)=67 (+/−0.1), ΔUH(Tm) (cal mol^−1)=107000(+/−5000), ΔUS(Tm) (cal mol^−1 K^−1)=318, ΔUCp (cal mol^−1 K^−1)=2600.

[5] = target: T4, proMMP13(1-268) (SEQ ID NO:7); test: ProMMP13/Plasmin P126 Activation Assay; format: biochemical; set-up: 6x-histidine (C); made in house; host or cells: HEK293 (transient transfection, secreted); details: 8 nM proMMP13, 16 nM plasmin, 40 min 37° C.
Description: On the day of assay, proMMP13(1-268) (SEQ ID NO:7) purified from HEK293 cells and plasmin were diluted to 160 nM and 320 nM, respectively, in assay buffer. The reaction volume was 50 μL. […] The plate was sealed and incubated for 40 min at 37° C. […] Plasmin was not reactive towards P-126 substrate under these conditions.

SMILES | Kd [1] [µM] | Kd [2] [µM] | IC50 [3] [µM] | Kd [4] [µM] | IC50 [5] [µM]
Cc1nc(-c2csc(Nc3cc(S(N)(=O)=O)ccc3OC(C)C)n2)c(C)n1C [Example 2, 4-Isopropoxy-3-[4-(1,2,5-trimethyl-1H-imidazol-4-yl)-thiazol-2-ylamino]-benzenesulfonamide.TFA] | 12 | 33.2 | ~6 | 10 | 
CCOc1ccc(C#N)cc1Nc1nc(-c2cnn(C)c2)cs1 [Example 5, 4-Ethoxy-3-[4-(1-methyl-1H-pyrazol-4-yl)-thiazol-2-ylamino]-benzonitrile] | 8.9 | 14 |  | 17 | 
Cc1nc(C)n(C)c1-c1csc(Nc2cc(S(N)(=O)=O)ccc2OC(C)C)n1 [Example 1, 4-Isopropoxy-3-[4-(2,3,5-trimethyl-3H-imidazol-4-yl)-thiazol-2-ylamino]-benzenesulfonamide] | 4.7 | 8.6 | 2.3 | 1.6 | 
Cc1nc(-c2csc(Nc3cc(C(N)=O)ccc3OC(C)C)n2)c(C)[nH]1 [Example 3, 3-[4-(2,5-Dimethyl-1H-imidazol-4-yl)-thiazol-2-ylamino]-4-isopropoxy-benzamide.TFA] | 4.8 | > 95 | 0.79 | 5.1 | 
Cc1nc(C)c(-c2csc(Nc3cc(C(N)=O)ccc3OC(C)C)n2)o1 [Example 6, 3-[4-(2,4-Dimethyl-oxazol-5-yl)-thiazol-2-ylamino]-4-isopropoxy-benzamide] | 0.17 | 7.2 | 0.27 | 6.1 | 6
Cc1nc(C)n(C)c1-c1csc(Nc2cc(C(N)=O)ccc2OC(C)C)n1 [Example 7, 4-Isopropoxy-3-[4-(2,3,5-trimethyl-3H-imidazol-4-yl)-thiazol-2-ylamino]-benzamide.TFA] | 5.9 | 42 | 1.9 |  | 
CCOc1ccc(C#N)cc1Nc1nc(-n2cc(C)nc2C)cs1 [Example 4, 3-[4-(2,4-Dimethyl-imidazol-1-yl)-thiazol-2-ylamino]-4-ethoxy-benzonitrile] | 76 | 36 | ~5 | > 95 | 

— patent US20120129897A1, “BIS HETEROARYL INHIBITORS OF PRO-MATRIX METALLOPROTEINASE ACTIVATION” (priority 2010, published 2012)
